Patent US20140309137A1, “GENE EXPRESSION PROFILES ASSOCIATED WITH LEAN PHENOTYPE AND USES THEREOF” (NESTEC SA, priority 2008, published 2014)

Tests used:
[1] = Body composition and body fat analysis after CLA, high protein diet or exercise treatment; assay type: in vivo, Sprague Dawley rats; settings: rats
Description: (§1) Four-week old male Sprague Dawley rats were allowed to acclimate for two weeks on a control diet comprising AIN-93M (American Institute of Nutrition purified diet formula for maintenance of mature rodents). Rats were divided into four groups of 12. Group 1 was fed the control diet supplemented with CLA (Table 1). Group 2 was fed a modified diet increased in protein and decreased in carbohydrate (Table 1). Group 3 was fed the control diet, and was given the opportunity to engage in supplemental exercise. Specifically, a running wheel was placed in the cage of each rat in group 3, and daily use of the wheel was monitored by recording each turn of the wheel using a sensor connected to a computer. Group 4 was fed the control diet (Table 1).
(§2) Measurements were taken at 7 and 60 days after initiation of the feeding or exercise protocols. At the completion of the 60-day feeding protocol, all animals were sacrificed and analyses were performed.
Body composition analyses were performed on the test animals.

[2] = Biochemical analyses of blood (fasting glucose, glucagon, insulin); assay type: in vivo, Sprague Dawley rats; settings: for Fasting blood glucagon / Fasting blood glucose / Fasting blood insulin: rats
Description: as §1, §2

[3] = after 60 days, compared with the control diet and the exercise treatment

conjugated linoleic acid [CLA]
Body fat ([1]; 60 days, compared with the Control group): reduced body fat
Retroperitoneal fat ([1]; following 60 days of treatment): 10.07 g
Total fat pad ([1]; following 60 days of treatment): 31.80 g
Blood glucose level [2, 3]: reduced blood glucose level
Blood insulin [2, 3]: reduced blood insulin
Fasting blood glucagon ([2]; Day 7): 111.65 pg/mL
Fasting blood glucose ([2]; Day 7): 10.53 mmol/L
Fasting blood insulin ([2]; Day 7): 233.58 pmol/L
Fasting blood glucagon ([2]; Day 60): 120.77 pg/mL
Fasting blood glucose ([2]; Day 60): 11.08 mmol/L
Fasting blood insulin ([2]; Day 60): 172.66 pmol/L
